In ChEMBL document CHEMBL4613224, “Synthesis, in-vitro antiprotozoal activity and molecular docking study of isothiocyanate derivatives” (Bioorg Med Chem, 2020):
Activity calls are given as the source filed them. The calls are words filed in the database; no cut-off is given here.

How the values were obtained:
[1] = tested on: Trypanosoma brucei rhodesiense; assay: Antitrypanosomal activity against bloodstream Trypanosoma brucei rhodesiense STIB900 assessed as parasite growth inhibition measured after 70 hrs by Alamar blue assay; format: functional, organism-based; conditions: STIB900, 70 h
Plasmodium falciparum = assay: Antiplasmodial activity against Plasmodium falciparum NF54 measured after 24 hrs in presence of [3H] hypoxanthine by liquid scintillation counter analysis; format: functional, organism-based
[2] = (§1) Selectivity index, ratio of IC50 for rat L6 cells assessed as reduction in cell viability measured after 72 hrs by Alamar blue based inverted microscopy analysis to IC50 for bloodstream Trypanosoma brucei rhodesiense STIB900 assessed as parasite growth inhibition measured after 70 hrs by Alamar blue assay; format: toxicity; conditions: read-out: Ratio IC50
L6 = assay: Cytotoxicity against rat L6 cells assessed as reduction in cell viability measured after 72 hrs by Alamar blue based inverted microscopy analysis; conditions: L6, 72 h
[3] = Selectivity index, ratio of IC50 for rat L6 cells assessed as reduction in cell viability measured after 72 hrs by Alamar blue based inverted microscopy analysis to IC50 for Plasmodium falciparum NF54 measured after 24 hrs in presence of [3H] hypoxanthine by liquid scintillation counter analysis; format: toxicity; conditions: read-out: Ratio IC50
[4] = tested on: Trypanosoma brucei rhodesiense; assay: Antitrypanosomal activity against bloodstream Trypanosoma brucei rhodesiense STIB900 assessed as parasite growth inhibition at 2 ug/ml measured after 70 hrs by Alamar blue assay relative to control; format: functional; conditions: for inhibition at 2 µg/mL: STIB900, 70 h
Trypanosoma cruzi [5] = assay: Antitrypanosomal activity against Trypanosoma cruzi Tulahuen C4 trypomastigotes infected in rat L6 cells assessed as parasite growth inhibition at 2 ug/ml measured after 96 hrs by inverted microscopy analysis relative to control; format: functional; conditions: for inhibition at 2 µg/mL: Tulahuen C4, L6, 96 h
Leishmania donovani [6] = assay: Antileishmanial activity against Leishmania donovani MHOM-ET-67/L82 axenic amastigotes assessed as parasite growth inhibition at 2 to 10 ug/ml measured after 72 hrs by Alamar blue based inverted microscopy analysis relative to control; format: functional
[7] = as §1, with “Leishmania donovani MHOM-ET-67/L82 axenic amastigotes” for “bloodstream Trypanosoma brucei rhodesiense STIB900”, “72” for “70”, “based inverted microscopy analysis” for “assay”; format: toxicity; conditions: for selectivity ratio at 72 h: L6 cells, read-out: Ratio IC50
Leishmania donovani [8] = assay: Antileishmanial activity against Leishmania donovani MHOM-ET-67/L82 axenic amastigotes assessed as parasite growth inhibition measured after 72 hrs by Alamar blue based inverted microscopy analysis; format: functional, organism-based; conditions: MHOM-ET-67/L82, 72 h
Trypanosoma cruzi [9] = assay: Antitrypanosomal activity against Trypanosoma cruzi Tulahuen C4 trypomastigotes infected in rat L6 cells assessed as parasite growth inhibition measured after 96 hrs by inverted microscopy analysis; format: functional, organism-based; conditions: Tulahuen C4, L6, 96 h
[10] = Selectivity index, ratio of IC50 for rat L6 cells assessed as reduction in cell viability measured after 72 hrs by Alamar blue based inverted microscopy analysis to IC50 for Trypanosoma cruzi Tulahuen C4 trypomastigotes infected in rat L6 cells assessed as parasite growth inhibition measured after 96 hrs by inverted microscopy analysis; format: toxicity; conditions: read-out: Ratio IC50
[11] = tested on: Trypanosoma brucei brucei; assay: Antitrypanosomal activity against Trypanosoma brucei brucei assessed as parasite growth inhibition; format: functional, organism-based

| Compound | IC50 [1] [µM] | IC50 (Plasmodium falciparum) [µM] | selectivity ratio at 72 h [2] | IC50 (L6; read-out: IC50) [µM] | selectivity ratio at 72 h [3] | inhibition at 2 µg/mL [4] [%] | inhibition (Trypanosoma cruzi [5]) | inhibition (INH) (Leishmania donovani [6]) [%] | selectivity ratio at 72 h [7] | IC50 (Leishmania donovani [8]) [µM] | also measured |
| --- | --- | --- | --- | --- | --- | --- | --- | --- | --- | --- | --- |
| COc1ccc2c(c1OC)CO[C@@H]2[C@H]1c2c(cc3c(c2OC)OCO3)CCN1C(CN)c1ccc(C)cc1 (some centres undefined) | 1 | 1.8 | 24.4 | 23.3 | 12.8 | > 50 |  |  |  |  |  |
| Fc1ccc(N=C=S)cc1 | 46.6 |  | 6.2 | 287 |  | > 50 | inactive |  |  |  | inhibition (Leishmania donovani [6]): inactive |
| S=C=NCCc1c[nH]c2ccccc12 | 4 | 10.3 | 1.8 | 7.1 | 0.7 | > 50 | inactive | >90 | 4.2 | 1.7 |  |
| COc1ccc2c(c1OC)CO[C@@H]2[C@H]1c2c(cc3c(c2OC)OCO3)CCN1[C@@H](CN)c1ccc(F)cc1 | 1.3 | 2.7 | 29.3 | 38.8 | 14.5 | > 50 |  |  |  |  | inhibition at 2 µg/mL (Trypanosoma cruzi [5]): 53%; IC50 (Trypanosoma cruzi [9]): 10.6 µM; selectivity ratio at 72 h [10]: 3.7 |
| COc1ccc2c(c1OC)CO[C@@H]2[C@H]1c2c(cc3c(c2OC)OCO3)CCN1C(CN=C=S)c1ccc2c(c1)Cc1ccccc1-2 (some centres undefined) | 6.5 | 2.6 | 0.6 | 3.9 | 1.5 | > 50 | inactive | >90 | 3.1 | 1.3 |  |
| COc1ccc2c(c1OC)CO[C@@H]2[C@H]1c2c(cc3c(c2OC)OCO3)CCN1C(CN=C=S)c1cccnc1 (some centres undefined) | 2.7 | 2.5 | 2.6 | 7.1 | 2.9 | > 50 |  | >90 | 8 | 0.9 | inhibition at 2 µg/mL (Trypanosoma cruzi [5]): 100%; IC50 (Trypanosoma cruzi [9]): 1.9 µM; selectivity ratio at 72 h [10]: 3.8 |
| Cc1ccc(N=C=S)cc1 | 37.1 |  | 8.8 | 325 |  | > 50 | inactive |  |  |  | inhibition (Leishmania donovani [6]): inactive |
| COC(=O)[C@H](Cc1c[nH]c2ccccc12)N=C=S | 22.5 | 10.2 | 3.5 | 78.1 | 7.7 | > 50 | inactive | >90 | 10.9 | 7.1 | Ratio IC50 ([7]; 72 h): 14.4 |
| CC(C)c1ccc2c(c1)CC[C@H]1[C@](C)(CN=C=S)CCC[C@]21C | 5.7 | 1.1 | 1.8 | 10 | 9.4 | > 50 | inactive | >90 | 2.4 | 4.2 |  |
| C[C@@H](CCC(N)=O)[C@H]1CC[C@H]2[C@@H]3CC[C@@H]4C[C@H](O)CC[C@]4(C)[C@H]3C[C@H](O)[C@]12C |  |  |  |  |  |  |  |  |  |  | inhibition [4]: inactive |
| C[C@@H](CCCN=C=S)[C@H]1CC[C@H]2[C@@H]3[C@H](O)C[C@@H]4C[C@H](O)CC[C@]4(C)[C@H]3C[C@H](O)[C@]12C | 1.3 | 5.2 | 2.9 | 3.9 | 0.7 | > 50 | inactive | >90 | 7.8 | 0.5 |  |
| COc1cc([C@@H]2c3cc4c(cc3[C@H](O)[C@H]3COC(=O)[C@H]23)OCO4)cc(OC)c1OC [PODOFILOX] |  |  |  |  |  |  |  |  |  |  | IC50 (L6): 0.012 µM |
| O=C(Cn1ccnc1[N+](=O)[O-])NCc1ccccc1 [BENZNIDAZOLE] |  |  |  | > 380 |  |  |  |  | 196 |  | IC50 (Trypanosoma cruzi [9]): 2.41 µM; selectivity ratio at 72 h [10]: > 158 |
| COc1ccc2c(c1OC)CO[C@@H]2[C@H]1c2c(cc3c(c2OC)OCO3)CCN1[C@@H](CN)c1cccnc1 | 3.9 |  | 3.7 | 14.4 |  | > 50 |  |  |  |  |  |
| COC(=O)[C@H](Cc1ccccc1)N=C=S |  |  |  | 13.9 |  | > 50 | inactive | >90 | 14.4 | 1 |  |
| C[C@@H](CCCN=C=S)[C@H]1CC[C@H]2[C@@H]3[C@H](O)C[C@@H]4C[C@H](O)CC[C@]4(C)[C@H]3CC[C@]12C | 4.5 | 4.9 | 1.2 | 5.4 | 1.1 | > 50 | inactive | >90 | 3.6 | 1.5 |  |

| Compound | IC50 [1] [µM] | IC50 (Plasmodium falciparum) [µM] | selectivity ratio at 72 h [2] | IC50 (L6; read-out: IC50) [µM] | selectivity ratio at 72 h [3] | inhibition at 2 µg/mL [4] [%] | inhibition (Trypanosoma cruzi [5]) | inhibition (INH) (Leishmania donovani [6]) [%] | selectivity ratio at 72 h [7] | IC50 (Leishmania donovani [8]) [µM] | also measured |
| --- | --- | --- | --- | --- | --- | --- | --- | --- | --- | --- | --- |
| Nc1nc(N)nc(Nc2ccc([As]3SCC(CO)S3)cc2)n1 (centres undefined) [MELARSOPROL] |  |  | 3230 | 24.2 |  |  |  |  |  |  |  |
| C[C@@H](CCC(N)=O)[C@H]1CC[C@H]2[C@@H]3CC[C@@H]4C[C@H](O)CC[C@]4(C)[C@H]3CC[C@]12C |  |  |  |  |  |  |  |  |  |  | inhibition [4]: inactive |
| C[C@@H](CCCN=C=S)[C@H]1CC[C@H]2[C@@H]3CC[C@@H]4C[C@H](O)CC[C@]4(C)[C@H]3CC[C@]12C | 9.7 | 4.1 | 0.5 | 4.5 | 1.1 | > 50 | inactive | >90 | 0.8 | 5.4 |  |
| C[C@@H](CCC(N)=O)[C@H]1CC[C@H]2[C@@H]3[C@H](O)C[C@@H]4C[C@H](O)CC[C@]4(C)[C@H]3C[C@H](O)[C@]12C |  |  |  |  |  |  |  |  |  |  | inhibition [4]: inactive |
| COc1ccc2c(c1OC)CO[C@@H]2[C@H]1c2c(cc3c(c2OC)OCO3)CCN1C(CN)c1ccccc1 (some centres undefined) | 1.4 | 2 | 8.8 | 12.1 | 6 | > 50 |  |  |  |  |  |
| C[C@@H](CCCN=C=S)[C@H]1CC[C@H]2[C@@H]3[C@@H](O)C[C@@H]4C[C@H](O)CC[C@]4(C)[C@H]3CC[C@]12C | 1.6 |  | 2.7 | 4.3 |  | > 50 | inactive | >90 |  |  |  |
| COc1ccc2c(c1OC)CO[C@@H]2[C@H]1c2c(cc3c(c2OC)OCO3)CCN1C(CN=C=S)c1ccc(C)cc1 (some centres undefined) | 3.1 | 1.1 | 0.5 | 1.5 | 1.4 | > 50 | inactive | >90 | 1.7 | 0.8 |  |
| CNCCc1c([C@H]2[C@H]3[C@H](C=C(C)CC3(C)C)c3c(CCNC)c4ccccc4n32)[nH]c2ccccc12 |  |  |  |  |  |  |  |  |  |  | IC50 [11]: 2.8 µM |
| CCc1ccccc1N=C=S |  |  |  |  |  | > 50 | inactive |  |  |  | inhibition (Leishmania donovani [6]): inactive |
| COc1ccc2c(c1OC)CO[C@@H]2[C@H]1c2c(cc3c(c2OC)OCO3)CCN1C(CN)c1ccc2c(c1)Cc1ccccc1-2 (some centres undefined) | 3.5 | 1.8 | 5.6 | 19.6 | 11.2 | > 50 |  |  |  |  |  |
| CC(C)=C[C@H]1C[C@H](/C=C/c2[nH]c3ccccc3c2CCN(C)C)n2c1c(CCN(C)C)c1ccccc12 |  |  |  |  |  |  |  |  |  |  | IC50 [11]: 6.2 µM |
| S=C=NCc1ccccc1 [BENZYL ISOTHIOCYANATE] |  |  |  |  |  | > 50 | inactive |  |  |  | inhibition (Leishmania donovani [6]): inactive |
| COc1ccc(N=C=S)cc1OC |  |  |  |  |  | 50 | inactive |  |  |  | inhibition (Leishmania donovani [6]): inactive |
| COc1ccc2c(c1OC)CO[C@@H]2[C@H]1c2c(cc3c(c2OC)OCO3)CCN1C(CN=C=S)c1ccccc1 (some centres undefined) | 2.3 | 3.7 | 8.2 | 18.7 | 5.07 | > 50 | inactive | >90 | 18.4 | 1 |  |
| COc1ccc2c(c1OC)CO[C@@H]2[C@H]1c2c(cc3c(c2OC)OCO3)CCN1[C@@H](CN=C=S)c1ccc(F)cc1 | 1.7 | 2.1 | 8 | 13.6 | 6.5 | > 50 | inactive | >90 | 17.5 | 0.8 |  |
